What was measured:
[1] = test system: blackgrass; assay: Test A preemergence; assay type: in vivo, Alopecurus myosuroides; details: Alopecurus myosuroides, pre-emergence, 240 h, read-out: Plant response rating, Blackgrass; for pest or weed control at 125 g/ha: 125 g ai/ha, visual injury after 10 days, 0 to 100 scale, 0 is no effect, 100 is complete control; for pest or weed control at 500 g/ha: 500 g ai/ha, 0 to 100 scale (0 no effect, 100 complete control), 10 days
Procedure, shortened: (§1)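 Visual injury ratings on a 0–100 scale (100 = complete control) versus untreated controls, taken 10 days after treatment in greenhouse. Preemergence: directed soil spray onto seeded loam/sand. Postemergence: foliar application at one- to two-leaf stage, plants 2–10 cm. Formulation: non-phytotoxic solvent plus surfactant.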

[2] = test system: wheat; assay: Test A postemergence; assay type: in vivo, Triticum aestivum; details: Triticum aestivum, post-emergence, 240 h, postemergence, 10 days, 0 to 100 scale (0 no effect, 100 complete control); for plant injury at 125 g/ha: 125 g ai/ha, read-out: Wheat plant response rating; for plant injury at 500 g/ha: 500 g ai/ha, visual injury, read-out: Plant response rating, Wheat
Procedure, shortened: as §1

[3] = test system: soybean; assay: Test A preemergence; assay type: in vivo, Glycine max; details: Glycine max, pre-emergence, 240 h, read-out: Plant response rating, Soybean; for plant injury at 125 g/ha: 125 g ai/ha, visual injury after 10 days, 0 to 100 scale, 0 is no effect, 100 is complete control; for plant injury at 500 g/ha: 500 g ai/ha, 0 to 100 scale (0 no effect, 100 complete control), 10 days
Procedure, shortened: as §1

[4] = test system: goosegrass; assay: Test A postemergence; assay type: in vivo, Eleusine indica; details: Eleusine indica, post-emergence, 240 h, postemergence, 10 days, 0 to 100 scale (0 no effect, 100 complete control); for pest or weed control at 125 g/ha: 125 g ai/ha, read-out: Goosegrass plant response rating; for pest or weed control at 500 g/ha: 500 g ai/ha, visual injury, read-out: Plant response rating, Goosegrass
Procedure, shortened: as §1

[5] = test system: ragweed; assay: Test A preemergence; assay type: in vivo, Ambrosia artemisiifolia; details: Ambrosia artemisiifolia, pre-emergence, 240 h, read-out: Plant response rating, Ragweed; for pest or weed control at 125 g/ha: 125 g ai/ha, visual injury after 10 days, 0 to 100 scale, 0 is no effect, 100 is complete control; for pest or weed control at 500 g/ha: 500 g ai/ha, 0 to 100 scale (0 no effect, 100 complete control), 10 days
Procedure, shortened: as §1

[6] = test system: ragweed; assay: Test A postemergence; assay type: in vivo, Ambrosia artemisiifolia; details: Ambrosia artemisiifolia, post-emergence, 240 h, postemergence, 10 days, 0 to 100 scale (0 no effect, 100 complete control); for pest or weed control at 125 g/ha: 125 g ai/ha, read-out: Ragweed plant response rating; for pest or weed control at 500 g/ha: 500 g ai/ha, visual injury, read-out: Plant response rating, Ragweed
Procedure, shortened: as §1

[7] = test system: oat, wild; assay: Test A postemergence; assay type: in vivo, Avena fatua; details: Avena fatua, post-emergence, 240 h, postemergence, 10 days, 0 to 100 scale (0 no effect, 100 complete control); for pest or weed control at 125 g/ha: 125 g ai/ha, read-out: Oat, Wild plant response rating; for pest or weed control at 500 g/ha: 500 g ai/ha, visual injury, read-out: Plant response rating, Oat, Wild
Procedure, shortened: as §1

[8] = test system: ducksalad; assay: Test B flooded paddy test; assay type: in vivo, Heteranthera limosa; details: Heteranthera limosa, 312 h, 250 g ai/ha, Flood, 13 days, 0 to 100 scale (0 no effect, 100 complete control); read-out: Plant response rating, Ducksalad
Procedure, shortened: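 Species grown to 2-leaf stage; pots flooded 3 cm above soil and compound applied directly to paddy water, depth maintained throughout. After 13 days in greenhouse, plants visually rated against controls on 0–100 scale (0 no effect, 100 complete control); dash means no result.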

[9] = test system: pigweed, palmer; assay: Test A postemergence; assay type: in vivo, Amaranthus palmeri; details: Amaranthus palmeri, post-emergence, 240 h, postemergence, 10 days, 0 to 100 scale (0 no effect, 100 complete control); for pest or weed control at 125 g/ha: 125 g ai/ha, read-out: Pigweed, Palmer plant response rating; for pest or weed control at 500 g/ha: 500 g ai/ha, visual injury, read-out: Plant response rating, Pigweed, Palmer
Procedure, shortened: as §1

[10] = test system: foxtail, giant; assay: Test A postemergence; assay type: in vivo, Setaria faberi; details: Setaria faberi, post-emergence, 240 h, postemergence, 10 days, 0 to 100 scale (0 no effect, 100 complete control); for pest or weed control at 125 g/ha: 125 g ai/ha, read-out: Foxtail, Giant plant response rating; for pest or weed control at 500 g/ha: 500 g ai/ha, visual injury, read-out: Plant response rating, Foxtail, Giant
Procedure, shortened: as §1

[11] = test system: pigweed, palmer; assay: Test A preemergence; assay type: in vivo, Amaranthus palmeri; details: Amaranthus palmeri, pre-emergence, 240 h, read-out: Plant response rating, Pigweed, Palmer; for pest or weed control at 125 g/ha: 125 g ai/ha, visual injury after 10 days, 0 to 100 scale, 0 is no effect, 100 is complete control; for pest or weed control at 500 g/ha: 500 g ai/ha, 0 to 100 scale (0 no effect, 100 complete control), 10 days
Procedure, shortened: as §1

[12] = test system: ryegrass, Italian; assay: Test A preemergence; assay type: in vivo, Lolium multiflorum; details: Lolium multiflorum, pre-emergence, 240 h, read-out: Plant response rating, Ryegrass, Italian; for pest or weed control at 125 g/ha: 125 g ai/ha, visual injury after 10 days, 0 to 100 scale, 0 is no effect, 100 is complete control; for pest or weed control at 500 g/ha: 500 g ai/ha, 0 to 100 scale (0 no effect, 100 complete control), 10 days
Procedure, shortened: as §1

[13] = test system: blackgrass; assay: Test A postemergence; assay type: in vivo, Alopecurus myosuroides; details: Alopecurus myosuroides, post-emergence, 240 h; for pest or weed control at 125 g/ha: 125 g ai/ha, read-out: Blackgrass plant response rating; for pest or weed control at 500 g/ha: 500 g ai/ha, read-out: Plant response rating, Blackgrass
Procedure, shortened: as §1

[14] = test system: corn; assay: Test A postemergence; assay type: in vivo, Zea mays; details: Zea mays, post-emergence, 240 h, postemergence, 10 days, 0 to 100 scale (0 no effect, 100 complete control); for plant injury at 125 g/ha: 125 g ai/ha, read-out: Corn plant response rating; for Corn plant response rating (crop injury, 0 = no effect, 100 = complete kill) at 500 g/ha: 500 g ai/ha, visual injury
Procedure, shortened: as §1

[15] = postemergence, 10 days, 0 to 100 scale (0 no effect, 100 complete control)
[16] = postemergence, 10 days, visual injury, 0 to 100 scale (0 no effect, 100 complete control)

Row | Structure (SMILES) | pest or weed control at 125 g/ha [1] [%] | pest or weed control at 500 g/ha [1] [%] | plant injury at 125 g/ha [2] [%] | plant injury at 500 g/ha [2] [%] | plant injury at 125 g/ha [3] [%] | plant injury at 500 g/ha [3] [%] | pest or weed control at 125 g/ha [4] [%] | pest or weed control at 500 g/ha [4] [%] | pest or weed control at 125 g/ha [5] [%] | pest or weed control at 500 g/ha [5] [%] | pest or weed control at 125 g/ha [6] [%] | pest or weed control at 500 g/ha [6] [%] | pest or weed control at 125 g/ha [7] [%] | pest or weed control at 500 g/ha [7] [%] | pest or weed control at 250 g/ha [8] [%] | pest or weed control at 125 g/ha [9] [%] | pest or weed control at 500 g/ha [9] [%] | pest or weed control at 125 g/ha [10] [%] | pest or weed control at 500 g/ha [10] [%] | pest or weed control at 125 g/ha [11] [%] | also measured
1 | COCc1ncn(-c2cccc(C(=O)N3C[C@H](C)Oc4c(C)cccc43)c2)n1 [Compound 101, [(2S)-2,3-Dihydro-2,8-dimethyl-4H-1,4-benzoxazin-4-yl][3-[3-(methoxymethyl)-1H-1,2,4-triazol-1-yl]phenyl]methanone] | 50 | 90 | 20 | 70 | 20 | 40 | 50 | 80 | 0 | 20 | 50 | 50 | 40 | 90 | 55 | 50 | 60 | 90 | 90 | 90 | pest or weed control at 500 g/ha [11]: 100%; pest or weed control at 125 g/ha [12]: 80%; pest or weed control at 500 g/ha [12]: 90%; pest or weed control at 125 g/ha [13, 15]: 70%; pest or weed control at 500 g/ha [13, 16]: 100%; plant injury at 125 g/ha [14]: 70%; Corn plant response rating (crop injury, 0 = no effect, 100 = complete kill) at 500 g/ha [14]: 80%
2 | COc1ccc(-n2cnc(C(C)C)n2)cc1C(=O)N1C[C@H](C)Oc2c(Cl)cccc21 [Compound 84, [(2S)-8-chloro-2-methyl-2,3-dihydro-1,4-benzoxazin-4-yl]-[5-(3-isopropyl-1,2,4-triazol-1-yl)-2-methoxy-phenyl]methanone] | 80 | 80 | 40 | 50 | 90 | 100 | 100 | 100 | 70 | 100 | 100 | 100 | 90 | 90 | 60 | 90 | 100 | 80 | 100 | 100 | pest or weed control at 500 g/ha [11]: 100%; pest or weed control at 125 g/ha [12]: 100%; pest or weed control at 500 g/ha [12]: 100%; pest or weed control at 125 g/ha [13, 15]: 70%; pest or weed control at 500 g/ha [13, 16]: 70%; plant injury at 125 g/ha [14]: 70%; Corn plant response rating (crop injury, 0 = no effect, 100 = complete kill) at 500 g/ha [14]: 90%
3 | Cc1cccc2c1O[C@@H](C)CN2C(=O)c1cccc(-n2cnc(C3CCCC3)n2)c1 [Compound 80, [3-(3-Cyclopentyl-1H-1,2,4-triazol-1-yl)phenyl][(2S)-2,3-dihydro-2,8-dimethyl-4H-1,4-benzoxazin-4-yl]methanone] | 20 | 40 | 10 | 10 | 0 | 0 | 10 | 30 | 0 | 0 | 40 | 60 | 0 | 20 | 0 | 30 | 70 | 10 | 50 | 10 | pest or weed control at 500 g/ha [11]: 80%; pest or weed control at 125 g/ha [12]: 90%; pest or weed control at 500 g/ha [12]: 100%; pest or weed control at 125 g/ha [13, 15]: 0%; pest or weed control at 500 g/ha ([13]; Postemergence, 0 to 100 scale): 40%; plant injury at 125 g/ha [14]: 10%; Corn plant response rating (crop injury, 0 = no effect, 100 = complete kill) at 500 g/ha [14]: 20%

From US20260262643A1, “HERBICIDAL BENZOXAZINES” (FMC CORPORATION, priority 2022, published 2026)
